Read-outs that look alike come from different tables or passages of the source.
What was measured:
[1] = target: T1, full-length beta-Catenin (Uniprot ID P35222) (Homo sapiens, UniProt P35222); assay: Fluorescence polarization IC50 (beta-catenin / 5FAM-TCF4 10-53 competition); type: binding; conditions: fluorescence polarization; read-out: beta-Catenin FP IC50
T1 construct: 10 nM full-length beta-Catenin (Uniprot ID P35222)
T1 sequence (P35222 1-781): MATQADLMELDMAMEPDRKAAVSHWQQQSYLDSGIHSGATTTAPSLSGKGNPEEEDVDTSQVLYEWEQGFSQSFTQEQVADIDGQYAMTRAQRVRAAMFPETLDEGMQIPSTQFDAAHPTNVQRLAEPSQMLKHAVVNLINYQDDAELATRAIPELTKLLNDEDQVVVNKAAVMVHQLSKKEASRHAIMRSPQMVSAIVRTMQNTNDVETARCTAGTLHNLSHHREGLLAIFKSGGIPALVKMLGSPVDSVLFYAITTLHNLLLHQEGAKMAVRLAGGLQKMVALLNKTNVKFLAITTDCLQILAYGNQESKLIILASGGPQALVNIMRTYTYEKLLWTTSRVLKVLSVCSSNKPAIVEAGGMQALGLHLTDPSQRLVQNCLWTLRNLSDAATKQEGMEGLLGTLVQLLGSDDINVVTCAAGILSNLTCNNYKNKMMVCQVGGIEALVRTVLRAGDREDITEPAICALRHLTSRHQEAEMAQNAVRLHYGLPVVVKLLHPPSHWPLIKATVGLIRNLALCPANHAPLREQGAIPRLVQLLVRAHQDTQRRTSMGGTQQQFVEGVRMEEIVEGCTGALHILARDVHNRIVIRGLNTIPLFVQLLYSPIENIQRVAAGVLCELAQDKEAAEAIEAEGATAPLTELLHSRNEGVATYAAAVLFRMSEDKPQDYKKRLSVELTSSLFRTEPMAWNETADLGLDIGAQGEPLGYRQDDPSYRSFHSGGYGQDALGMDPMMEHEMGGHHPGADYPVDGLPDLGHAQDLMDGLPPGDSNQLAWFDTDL

[2] = target: T2, beta-catenin/TCF4 engagement (Homo sapiens, UniProt P35222); assay: Nano-BRET target engagement assay (B-cat-Halo & TCF4-Luc in HEK293 cells); type: cell-based; conditions: read-out: NanoBRET Abs IC50
T2 construct: expressed in transfected cells; host or cells: HEK293
T2 sequence (P35222 1-781): T1 sequence (P35222 1-781)

Compound	IC50 [1]	IC50 [2]	IC50 ([2]; absolute IC50)
CC(=O)N1CCC[C@]12CC=CCCCC1(CCCC=CCCCOC(=O)N3CC[C@@](C(=O)N[C@@H](Cc4ccccc4Cl)C(=O)N[C@@H](Cc4csc5ccccc45)C(=O)N[C@@H](CC(N)=O)C(N)=O)(C3)NC(=O)[C@H](C)NC(=O)[C@H](Cc3ccccc3)NC(=O)[C@H](C)NC(=O)[C@H](C)NC(=O)[C@H](Cc3cccc(C(=O)O)c3)NC(=O)[C@H](CC(=O)O)NC1=O)NC(=O)[C@H](CC(C)(C)C)NC(=O)[C@H](CC(=O)O)NC2=O (stereo partly drawn) [I-2036, Ac-PL3-Asp-Npg-B5-Asp-3COOHF-Ala-Ala-Phe-Ala-PyrS2-2C1F-BztA-Asn-NH2]	19 nM	12900 nM	
CC(=O)N1CCC[C@]12CC=CCCCC1(CCCC=CCCCCCC[C@@](C)(C(=O)N[C@@H](Cc3ccccc3)C(=O)N[C@@H](Cc3csc4ccccc34)C(=O)N[C@@H](CCC(N)=O)C(N)=O)NC(=O)[C@H](CCC(N)=O)NC(=O)[C@H](Cc3ccccc3)NC(=O)[C@H](C)NC(=O)[C@H](C)NC(=O)[C@H](CCC(=O)O)NC(=O)[C@H](CC(=O)O)NC1=O)NC(=O)[C@H](CO)NC(=O)[C@H](CC(=O)O)NC2=O (stereo partly drawn) [I-1527, Ac-PL3-Asp-Ser-B5-Asp-Glu-Ala-Ala-Phe-Gln-S8-Phe-BztA-Gln-NH2]	36 nM		30300 nM
CC(=O)N1CCC[C@]12CC=CCCCC1(CCCC=CCCCOC(=O)N3CC[C@@](C(=O)N[C@@H](Cc4ccccc4)C(=O)N[C@@H](Cc4csc5ccccc45)C(=O)N[C@@H](CC(=O)N4CCOCC4)C(N)=O)(C3)NC(=O)[C@H](CC(C)C)NC(=O)[C@H](Cc3ccccc3)NC(=O)[C@H](C)NC(=O)[C@H](CCC(=O)N(C)C)NC(=O)[C@H](CCC(N)=O)NC(=O)[C@H](CC(=O)O)NC1=O)NC(=O)[C@H](CC1CCCCC1)NC(=O)[C@H](CC(N)=O)NC2=O (stereo partly drawn) [I-2501, Ac-PL3-Asn-Cha-B5-Asp-Gln-Me2Gln-Ala-Phe-Leu-PyrS2-Phe-BztA-MorphAsn-NH2]	154 nM		> 20000 nM
CC(=O)N1CCC[C@]12CC=CCCCC1(CCCC=CCCCOC(=O)N3CC[C@@](C(=O)N[C@@H](Cc4ccsc4)C(=O)N[C@@H](Cc4csc5ccccc45)C(=O)N[C@@H](C)C(N)=O)(C3)NC(=O)[C@H](CC(N)=O)NC(=O)[C@H](Cc3ccccc3)NC(=O)[C@H](C)NC(=O)[C@H](C)NC(=O)[C@H]([C@@H](C)O)NC(=O)[C@H](CC(N)=O)NC1=O)NC(=O)[C@H](CC(C)(C)C)NC(=O)[C@H](CC(=O)O)NC2=O (stereo partly drawn) [I-2142, Ac-PL3-Asp-Npg-B5-Asn-Thr-Ala-Ala-Phe-Asn-PyrS2-3Thi-BztA-Ala-NH2]	271 nM	> 20000 nM	
CC(=O)N1CCC[C@]12CC=CCCCC1(CCCC=CCCCCCC[C@@](C)(C(=O)N[C@@H](Cc3ccccc3)C(=O)N[C@@H](Cc3csc4ccccc34)C(=O)N[C@@H](CCC(N)=O)C(N)=O)NC(=O)[C@H](CC(C)C)NC(=O)[C@H](Cc3ccccc3)NC(=O)[C@H](C)NC(=O)[C@H](C)NC(=O)[C@H](CCC(=O)O)NC(=O)[C@H](CC(=O)O)NC1=O)NC(=O)[C@H](Cc1ccccc1)NC(=O)[C@H](CC(=O)O)NC2=O (stereo partly drawn) [I-1550, Ac-PL3-Asp-Phe-B5-Asp-Glu-Ala-Ala-Phe-Leu-S8-Phe-BztA-Gln-NH2]	22 nM		15300 nM
CC(=O)N1CCC[C@]12CC=CCCCC1(CCCC=CCCCCCC[C@@](C)(C(=O)N[C@@H](Cc3ccccc3)C(=O)N[C@@H](Cc3csc4ccccc34)C(=O)N[C@@H](CCC(N)=O)C(N)=O)NC(=O)[C@H](CCO)NC(=O)[C@H](Cc3ccccc3)NC(=O)[C@H](C)NC(=O)[C@H](C)NC(=O)[C@H](CCC(=O)O)NC(=O)[C@H](CC(=O)O)NC1=O)NC(=O)[C@H](CCO)NC(=O)[C@H](CC(=O)O)NC2=O (stereo partly drawn) [I-1548, Ac-PL3-Asp-Hse-B5-Asp-Glu-Ala-Ala-Phe-Hse-S8-Phe-BztA-Gln-NH2]	28 nM		> 20000 nM
CC(=O)N1CCC[C@]12CC=CCCCC1(CCCC=CCCCOC(=O)N3CC[C@@](C(=O)N[C@@H](Cc4ccsc4)C(=O)N[C@@H](Cc4csc5ccccc45)C(=O)N[C@@H](C)C(N)=O)(C3)NC(=O)[C@H](CC(C)C)NC(=O)[C@H](Cc3cccc(F)c3)NC(=O)[C@H](C)NC(=O)[C@H](C)NC(=O)[C@H](Cc3cccc(C(=O)O)c3)NC(=O)[C@H](CC(=O)O)NC1=O)NC(=O)[C@H](CC(C)(C)C)NC(=O)[C@H](CC(=O)O)NC2=O (stereo partly drawn) [I-2260, Ac-PL3-Asp-Npg-B5-Asp-3COOHF-Ala-Ala-3FF-Leu-PyrS2-3Thi-BztA-Ala-NH2]	21 nM		3100 nM
CC(=O)N1CCC[C@]12CC=CCCCC1(CCCC=CCCCOC(=O)N3CC[C@@](C(=O)N[C@@H](Cc4ccccc4Cl)C(=O)N[C@@H](Cc4csc5ccccc45)C(=O)N[C@@H](CO)C(N)=O)(C3)NC(=O)[C@H](CC(C)C)NC(=O)[C@H](Cc3ccccc3)NC(=O)[C@H](C)NC(=O)[C@H](C)NC(=O)[C@H](Cc3ccccc3C(=O)O)NC(=O)[C@H](CC(=O)O)NC1=O)NC(=O)[C@H](CC(C)(C)C)NC(=O)[C@H](CC(=O)O)NC2=O (stereo partly drawn) [I-1663, Ac-PL3-Asp-Npg-B5-Asp-2COOHF-Ala-Ala-Phe-Leu-PyrS2-2C1F-BztA-Ser-NH2]	67 nM		8500 nM
CC(=O)N1CCC[C@]12CC=CCCCC1(CCCC=CCCCOC(=O)N3CC[C@@](C(=O)N[C@@H](Cc4ccccc4C(F)(F)F)C(=O)N[C@@H](Cc4csc5ccccc45)C(=O)N[C@@H](CCC(=O)N4CCOCC4)C(N)=O)(C3)NC(=O)[C@H](Cc3ccccc3)NC(=O)[C@H](Cc3ccccc3)NC(=O)[C@H](C)NC(=O)[C@H](C)NC(=O)[C@H](Cc3cccc(C(=O)O)c3)NC(=O)[C@H](CC(=O)O)NC1=O)NC(=O)[C@H](CC(C)(C)C)NC(=O)[C@H](CC(=O)O)NC2=O (stereo partly drawn) [I-2543, Ac-PL3-Asp-Npg-B5-Asp-3COOHF-Ala-Ala-Phe-Phe-PyrS2-2F3MeF-BztA-MorphGln-NH2]	37 nM		7300 nM

Compounds with a lower IC50 [1], results first:

IC50 [1]	IC50 [2]	IC50 ([2]; absolute IC50)	Compound
13 nM	37700 nM		CC(=O)N1CCC[C@]12CC=CCCCC1(CCCC=CCCCOC(=O)N3CC[C@@](C(=O)N[C@@H](Cc4ccsc4)C(=O)N[C@@H](Cc4csc5ccccc45)C(=O)N[C@@H](C)C(N)=O)(C3)NC(=O)[C@H](CC(C)C)NC(=O)[C@H](Cc3ccccc3)NC(=O)[C@H](C)NC(=O)[C@H](CCCCN)NC(=O)[C@H](Cc3cccc(C(=O)O)c3)NC(=O)[C@H](CC(=O)O)NC1=O)NC(=O)[C@H](CC(C)(C)C)NC(=O)[C@H](CC(=O)O)NC2=O (stereo partly drawn) [I-1917, Ac-PL3-Asp-Npg-B5-Asp-3COOHF-Lys-Ala-Phe-Leu-PyrS2-3Thi-BztA-Ala-NH2]
18 nM		> 20000 nM	CCN(CC(=O)O)C[C@@H]1NC(=O)[C@H](CC(=O)O)NC(=O)C2(CCCC=CCCCCCC[C@@](C)(C(=O)N[C@@H](Cc3ccsc3)C(=O)N[C@@H](Cc3csc4ccccc34)C(=O)N[C@@H](CCC(N)=O)C(N)=O)NC(=O)[C@H](CC(N)=O)NC(=O)[C@H](Cc3ccccc3)NC(=O)[C@H](C)NC(=O)[C@H](C)NC1=O)CCCC=CC[C@]1(CCCN1C(C)=O)C(=O)N[C@@H](CC(=O)O)C(=O)N[C@@H](CC(C)(C)C)C(=O)N2 (stereo partly drawn) [I-1628, Ac-PL3-Asp-Npg-B5-Asp-[Et]GA-Ala-Ala-Phe-Asn-S8-3Thi-BztA-Gln-NH2]
5 nM		3300 nM	CC(=O)N1CCC[C@]12CC=CCCCC1(CCCC=CCCCOC(=O)N3CC[C@@](C(=O)N[C@@H](Cc4ccsc4)C(=O)N[C@@H](Cc4ccc5c(c4)CCC5)C(=O)N[C@@H](CCC(N)=O)C(N)=O)(C3)NC(=O)[C@H](CC(C)C)NC(=O)[C@H](Cc3ccccc3)NC(=O)[C@H](C)NC(=O)[C@H](C)NC(=O)[C@H](Cc3cccc(C(=O)O)c3)NC(=O)[C@H](CC(=O)O)NC1=O)NC(=O)[C@H](CC(C)(C)C)NC(=O)[C@H](CC(=O)O)NC2=O (stereo partly drawn) [I-2295, Ac-PL3-Asp-Npg-B5-Asp-3COOHF-Ala-Ala-Phe-Leu-PyrS2-3Thi-5IndA-Gln-NH2]
7 nM		6200 nM	CC(=O)N1CCC[C@]12CC=CCCCC1(CCCC=CCCCOC(=O)N3CC[C@@](C(=O)N[C@@H](Cc4ccccc4C(F)(F)F)C(=O)N[C@@H](Cc4csc5ccccc45)C(=O)N[C@@H](C)C(N)=O)(C3)NC(=O)[C@H](CC(C)C)NC(=O)[C@H](Cc3ccccc3)NC(=O)[C@H](C)NC(=O)[C@H](CCC(N)=O)NC(=O)[C@H](Cn3cc(CCC(=O)O)nn3)NC(=O)[C@H](CC(=O)O)NC1=O)NC(=O)[C@H](CC(C)(C)C)NC(=O)[C@H](CC(=O)O)NC2=O (stereo partly drawn) [I-2367, Ac-PL3-Asp-Npg-B5-Asp-[CH2CH2CO2H]TriAzDap-Gln-Ala-Phe-Leu-PyrS2-2F3MeF-BztA-Ala-NH2]
10 nM		> 20000 nM	CC(=O)N1CCC[C@]12CC=CCCCC1(CCCC=CCCCOC(=O)N3CC[C@@](C(=O)N[C@@H](Cc4ccccc4)C(=O)N[C@@H](Cc4csc5ccccc45)C(=O)N[C@@H](CCCCN)C(N)=O)(C3)NC(=O)[C@H](CC(C)C)NC(=O)[C@H](Cc3ccccc3)NC(=O)[C@H](C)NC(=O)[C@H](CCCCNC(C)C)NC(=O)[C@H](CCC(N)=O)NC(=O)[C@H](CC(=O)O)NC1=O)NC(=O)[C@H](CC1CCCCC1)NC(=O)[C@H](CC(=O)O)NC2=O (stereo partly drawn) [I-2429, Ac-PL3-Asp-Cha-B5-Asp-Gln-iPrLys-Ala-Phe-Leu-PyrS2-Phe-BztA-Lys-NH2]
